This is an account of results in patent US9221765B2, “Inhibition and dispersion of bacterial biofilms with benzimidazole derivatives” (North Carolina State University, priority 2009, dated 2015).

Molecules are shown by their SMILES. Where a name gives a salt, the structure may show the parent alone.

One assay relates to MRSA. Nature of the assay: Dispersion of preformed MRSA biofilm. The assay is classed as cell-based, Staphylococcus aureus. The settings on record: concentration that disperses 50% of a pre-formed biofilm. As to the method: (§1) A dose-response study was then initiated in which both the IC50 and EC50 value of each compound towards the bacterial strains were determined (Table 1). Here, IC50 is defined as the concentration of compound that inhibits 50% biofilm development while EC50 is defined as the concentration of compound that disperses 50% of a pre-formed biofilm.
(§2) Procedure to Determine the Dispersal Effect of Test Compounds on E. faecium, MRSA and S. epidermidis Preformed Biofilms:
(§3) Dispersion assays were performed by taking an overnight culture of bacterial strain and subculturing it at an OD600 of 0.01 into the necessary media (brain heart infusion for E. faecium, tryptic soy broth with a 0.5% glucose supplement (TSBG) for MRSA and tryptic soy broth with a 0.5% glucose supplement and a 3.0% NaCl supplement (TGN) for S. epidermidis. The resulting bacterial suspension was aliquoted (100 μL) into the wells of a 96-well PVC microtiter plate. Plates were then wrapped in GLAD Press n′ Seal® followed by an incubation under stationary conditions at ambient temperature to establish the biofilms. After 24 h, the media was discarded from the wells and the plates were washed thoroughly with water. Stock solutions of predetermined concentrations of the test compound were then made in the necessary media. These stock solutions were aliquoted (100 μL) into the wells of the 96-well PVC microtiter plate with the established biofilms. Media alone was added to a subset of the wells to serve as a control. Sample Plates were then incubated for 24 h at 37° C. After incubation, the media was discarded from the wells and the plates were washed thoroughly with water. Plates were then stained with 100 μL of 0.1% solution of crystal violet (CV) and then incubated at ambient temperature for 30 min. Plates were washed with water again and the remaining stain was solubilized with 200 μL of 95% ethanol. A sample of 125 μL of solubilized CV stain from each well was transferred to the corresponding wells of a polystyrene microtiter dish. Biofilm dispersion was quantitated by measuring the OD540 of each well in which a negative control lane wherein no biofilm was formed served as a background and was subtracted out.

In assay [1] the test system is vancomycin-resistant Enterococcus faecium (VRE). Nature of the assay: Dispersion of preformed VRE (E. faecium) biofilm. The format is cell-based. Conditions: concentration that disperses 50% of a pre-formed biofilm. The procedure: as §1, §2, §3
Assay [2] has as its system E. faecium, MRSA and S. epidermidis. Nature of the assay: Mitigating effects of iron on biofilm formation inhibition. The assay is classed as cell-based. Conditions: increasing Fe(II) concentration, 10.0 μM FeSO4, hydrochloride. As to the method: Next the mechanistic basis of how compound 3 was able to inhibit and disperse bacterial biofilms was investigated. Iron levels are known to effect Gram-positive biofilm development (Deighton, M.; Borland, R. Infection and Immunity 1993, 61, 4473-4479) and were deemed a plausible driver of the observed anti-biofilm activity. To examine Fe(II) related antibiofilm behavior, a dose-dependent study was performed in which the ability of 3 to inhibit biofilm development was measured under increasing Fe(II) concentration. […]
Inhibition assays were performed by taking an overnight culture of bacterial strain and subculturing it at an OD600 of 0.01 into the necessary media (brain heart infusion for E. faecium, tryptic soy broth with a 0.5% glucose supplement (TSBG) for MRSA, Luria-Bertani (LB) media for MDRAB, Luria-Bertani media without NaCl (LBNS) for PAO1 and tryptic soy broth with a 0.5% glucose supplement and a 3.0% NaCl supplement (TGN) for S. epidermidis. Stock solutions of predetermined concentrations of the 2-(2-amino-1H-benzo[d]imidazol-6-ylcarbamoyl)-3,4,5,6-tetrachlorobenzoic acid hydrochloride were then made in the necessary media. […] Biofilm inhibition was quantitated by measuring the OD540 of each well in which a negative control lane wherein no biofilm was formed served as a background and was subtracted out.

Assay [3] has the same test system. Description: Mitigating effects of zinc on biofilm formation inhibition. The assay is classed as cell-based. The settings on record: for effect of Zn(II) on ability to inhibit biofilm development: 50.0 μM compound, 25.0-200.0 μM ZnCl2, dose-dependent, hydrochloride. The source says:
Next, Zn(II) homeostasis was examined. Zn(II) has been implicated in the pathogenesis of Gram-positive bacterial infections and may be an important regulator of biofilm formation (Conrady, D. G.; Brescia, C. C.; Horii, K.; Weiss, A. A.; Hassett, D. J.; Herr, A. B. Proceedings of the National Academy of Sciences of the United States of America 2008, 105, 19456-19461).
Procedure to Determine the Mitigating Effects of Zinc on E. faecium, MRSA and S. epidermidis Biofilm Formation Inhibition Induced by 2-(2-Amino-1H-Benzo[d]Imidazol-6-Ylcarbamoyl)-3,4,5,6-Tetrachlorobenzoic Acid Hydrochloride:
Inhibition assays were performed by taking an overnight culture of bacterial strain and subculturing it at an OD600 of 0.01 into the necessary media (brain heart infusion for E. faecium, tryptic soy broth with a 0.5% glucose supplement (TSBG) for MRSA, Luria-Bertani (LB) media for MDRAB, Luria-Bertani media without NaCl (LBNS) for PAO1 and tryptic soy broth with a 0.5% glucose supplement and a 3.0% NaCl supplement (TGN) for S. epidermidis. Stock solutions of 50.0 μM 2-(2-amino-1H-benzo[d]imidazol-6-ylcarbamoyl)-3,4,5,6-tetrachlorobenzoic acid hydrochloride were then made in the necessary media. Samples were then doped with 25.0, 50.0, 75.0, 100.0, 150.0 and 200.0 μM ZnCl2 with controls in which no test compound was added to examine effects of 200.0 μM ZnCl2 on biofilm formation. These stock solutions were aliquoted (100 μL) into the wells of the 96-well PVC microtiter plate. Sample plates were then wrapped in GLAD Press n′ Seal® followed by an incubation under stationary conditions for 24 h at 37° C. After incubation, the media was discarded from the wells and the plates were washed thoroughly with water. Plates were then stained with 100 μL of 0.1% solution of crystal violet (CV) and then incubated at ambient temperature for 30 min. Plates were washed with water again and the remaining stain was solubilized with 200 μL of 95% ethanol. A sample of 125 μL of solubilized CV stain from each well was transferred to the corresponding wells of a polystyrene microtiter dish. Biofilm inhibition was quantitated by measuring the OD540 of each well in which a negative control lane wherein no biofilm was formed served as a background and was subtracted out.

Where [4] appears, read: listed as 2-(2-amino-1H-benzo[d]imidazol-6-ylcarbamoyl)-3,4,5,6-tetrachlorobenzoic acid hy.

As usually defined, the EC50 is the concentration giving half of the maximal effect. A high value points to weaker potency. As for `Nc1nc2ccc(NC(=O)c3c(Cl)c(Cl)c(Cl)c(Cl)c3C(=O)O)cc2[nH]1` [Compound 3, 2-(2-amino-1H-benzo[d]imidazol-6-ylcarbamoyl)-3,4,5,6-tetrachlorobenzoic acid hydrochloride], the EC50 in the assay with MRSA (Staphylococcus aureus) is 2.92 µM; in the assay with MRSA (hydrochloride), 2.9 µM; in assay [1] it was 74.8 µM; in assay [1] (hydrochloride), 75 µM. Further, the “effect of Fe(II) on biofilm inhibitory activity” value in assay [2] is on record as “not affected by increasing Fe(II) concentrations”; in assay [2] (setting [4]), “no effect on biofilm inhibitory activity”. Besides, the figures for the “effect of Zn(II) on ability to inhibit biofilm development” value in assay [3] and in assay [3] (setting [4]) were “suppressed the ability of 3 to inhibit biofilm development” and “mitigate the biofilm inhibition response”, respectively. For the same compound, the “biofilm formation inhibition when supplemented with ZnCl2” value in assay [3] (200 μM ZnCl2) is listed as “unable to inhibit biofilm formation”.
